Reference: US9340506B2, “Acetamide derivatives as glucokinase activators, their process and medicinal applications” (ADVINUS THERAPEUTICS LIMITED, priority 2007, dated 2016)

Biological target: purified human recombinant GK (Homo sapiens (Human), UniProt P35557)
Experiment: Glucokinase activity assay (coupled enzymatic, G6PD/NADH absorbance at 340 nm)
Format: biochemical
Conditions: for EC50: EC50 of % change in S0.5 of glucokinase for glucose, sigmoidal fit, read-out: EC50 (with respect to % ΔS0.5); for Emax / % Emax (with respect to % ΔS0.5): Emax of % change in S0.5 of glucokinase for glucose, vehicle S0.5 = 0%, 0 mM glucose = 100%; for Emax: read-out: % Emax (with respect to % ΔS0.5)
Text: The glucokinase (GK) assay is a coupled enzymatic assay. GK catalyzes the first step of glycolysis, the conversion of glucose to glucose-6-phosphate (G6P) in the presence of ATP. G6P in turn is converted by glucose-6-phosphate dehydrogenase (G6PD) to 6-phosphogluconate, a process that requires NAD, resulting in NADH formation. Since the GK-catalyzed step is the rate-limiting step of this coupled enzymatic process, the rate of accumulation of 6-phosphogluconate and NADH is directly proportional to the rate of glucose phosphorylation by GK. The rate of the GK-catalyzed reaction can therefore be measured by monitoring the increase in NADH absorbance at 340 nm.
The assay is carried out according to the protocol outlined in Hariharan et al (1997), Diabetes 46: 11-16. Briefly, the test compounds are incubated in a reaction mix containing 25 mM HEPES (pH 7.2), 10 mM MgCl2, 100 mM KCl, 5 mM ATP, 2 mM DTT, 0.5 mM NAD, 1 U/mL Leuconostoc mesenteroides G6PD, 0.3 U/mL of purified human recombinant GK, and different concentrations of glucose. Enzymatic activity is calculated from the initial reaction velocity, measured from the change in NADH absorbance as a function of time.
Compounds described in formula (I), in concentration ranges from 1.0 nM to 500 μM, are tested in the purified human recombinant glucokinase assay described above.
A compound is considered to be a glucokinase activator if it, in its testable range of concentrations, yields a higher rate of glucose phosphorylation than in its absence at a particular glucose concentration, for example at 5 mM glucose.
Compounds of general formula (I) are tested in the in vitro GK enzymatic assay to monitor dose-dependent effect on glucokinase activation (in kinetic mode), as described above, at various glucose concentrations. The S0.5 of glucokinase for glucose at different concentration of each compound of interest is calculated from the following modified version of the Michaelis-Menten equation, V=Vmax [S]^n/(S0.5^n+[S]^n), where [S] is the glucose concentration and n is the Hill coefficient (taken as 1.7 to account for the sigoidal kinetics of glucokinase with respect to glucose). The S0.5 is plotted against the log of the compound concentration. The change in the S0.5 of glucokinase (ΔS0.5) for glucose is calculated by subtracting the S0.5 at each concentration of the compound from the S0.5 in the vehicle control. The ΔS0.5 is then normalized to a percent scale, where the S0.5 in the vehicle control is set to 0% and 0 mM glucose is set to 100%. The % ΔS0.5 is then plotted against the log of the compound concentration. The EC50 and Emax of % change in S0.5 is obtained from the sigoidal fit of the data. Detailed protocol has been described in our copending application no. 409/CHE/2007 which is incorporated herein by reference. Characterization data of some representative glucokinase activators of the present disclosure, which are illustrative but not limiting, are given in table I below.

purified human recombinant GK, sequence (P35557 whole entry): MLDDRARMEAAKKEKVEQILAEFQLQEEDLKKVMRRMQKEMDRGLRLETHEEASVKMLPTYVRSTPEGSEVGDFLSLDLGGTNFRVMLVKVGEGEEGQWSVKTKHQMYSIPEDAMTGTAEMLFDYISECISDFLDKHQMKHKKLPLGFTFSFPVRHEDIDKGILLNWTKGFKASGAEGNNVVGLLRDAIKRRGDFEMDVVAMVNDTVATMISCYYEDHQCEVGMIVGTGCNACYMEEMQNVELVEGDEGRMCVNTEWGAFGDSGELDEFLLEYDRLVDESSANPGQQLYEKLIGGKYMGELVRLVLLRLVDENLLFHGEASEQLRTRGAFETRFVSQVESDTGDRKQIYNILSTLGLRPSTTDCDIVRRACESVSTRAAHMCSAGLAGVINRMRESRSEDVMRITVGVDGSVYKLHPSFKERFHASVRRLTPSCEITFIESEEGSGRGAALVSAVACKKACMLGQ

Row | EC50 | Emax | % Emax (with respect to % ΔS0.5) | Structure (SMILES)
1 | 260 nM | 91% | – | O=C(Nc1ncc(-n2cccn2)s1)C(Oc1ccc(F)cc1F)c1ccc(S(=O)(=O)C2CC2)cc1 (single isomer, unassigned; (+)) [Example G4A, (+)2-(4-cyclopropylsulfonylphenyl)-2-(2,4-difluorophenoxy)-N-(5-pyrazol-1-ylthiazol-2-yl)acetamide]
2 | 94 nM | 91% | – | CC(C)(C(=O)O)c1ccc(Oc2cnc(NC(=O)C(OC3CCOCC3)c3ccc(S(=O)(=O)C4CC4)cc3)s2)cc1 (single isomer, unassigned; (+)) [Example G5A, (+)2-[4-[2-[[2-(4-cyclopropylsulfonylphenyl)-2-tetrahydropyran-4-yloxy-acetyl]amino]thiazol-5-yl]oxyphenyl]-2-methyl-propanoic acid]
3 | 570 nM | 92% | – | Cc1ccc(Oc2cnc(NC(=O)C(O[C@@H]3CCOC3)c3ccc(S(=O)(=O)C4CC4)cc3)s2)cc1C(=O)O (single isomer, unassigned; (+)) [Example G11A]
4 | 300 nM | 90% | – | O=C(O)c1cnn(-c2cnc(NC(=O)C(OC3CCOCC3)c3ccc(S(=O)(=O)C4CC4)cc3)s2)c1 (single isomer, unassigned; (+)) [Example G12A, (+)1-[2-[[2-(4-cyclopropylsulfonylphenyl)-2-tetrahydropyran-4-yloxy-acetyl]amino]thiazol-5-yl]pyrazole-4-carboxylic acid]
5 | 380 nM | 99% | – | Cc1cc(Oc2cnc(NC(=O)C(O[C@@H]3CCOC3)c3ccc(S(=O)(=O)C4CC4)cc3)s2)ccc1C(=O)O (single isomer, unassigned; (+)) [Example G14A]
6 | 100 nM | 95% | – | CCOC(=O)c1cccc(Oc2cnc(NC(=O)C(OC3CCOCC3)c3ccc(S(=O)(=O)C4CC4)cc3)s2)c1 (single isomer, unassigned; (+)) [Example G19A, (+)ethyl 3-[2-[[2-(4-cyclopropylsulfonylphenyl)-2-tetrahydropyran-4-yloxy-acetyl]amino]thiazol-5-yl]oxybenzoate]
7 | 290 nM | 95% | – | O=C(O)c1cncc(Oc2cnc(NC(=O)C(OC3CCOCC3)c3ccc(S(=O)(=O)C4CC4)cc3)s2)c1 (single isomer, unassigned; (+)) [Example G22A, (+)5-[2-[[2-(4-cyclopropylsulfonylphenyl)-2-tetrahydropyran-4-yloxy-acetyl]amino]thiazol-5-yl]oxypyridine-3-carboxylic acid]
8 | 330 nM | – | 92% | Cc1cc(Oc2cnc(NC(=O)C(OC3CCOCC3)c3ccc(S(=O)(=O)C4CC4)cc3)s2)ccc1C(=O)O (single isomer, unassigned; (-)) [Example G1B, (−)4-[2-[[2-(4-cyclopropylsulfonylphenyl)-2-tetrahydropyran-4-yloxy-acetyl]amino]thiazol-5-yl]oxy-2-methyl-benzoic acid]
9 | 420 nM | 94% | – | O=C(O)Cc1nc(NC(=O)C(OC2CCOCC2)c2ccc(S(=O)(=O)N3CCCCC3)cc2)sc1Cl (single isomer, unassigned; (-)) [Example G3B, (−)2-[5-chloro-2-[[2-[4-(1-piperidylsulfonyl)phenyl]-2-tetrahydropyran-4-yloxy-acetyl]amino]thiazol-4-yl]acetic acid]
10 | 640 nM | – | 79% | O=C(Nc1ncc(-n2cccn2)s1)C(Oc1ccc(F)cc1F)c1ccc(S(=O)(=O)C2CC2)cc1 (single isomer, unassigned; (-)) [Example G4B, (−)2-(4-cyclopropylsulfonylphenyl)-2-(2,4-difluorophenoxy)-N-(5-pyrazol-1-ylthiazol-2-yl)acetamide]
11 | 1400 nM | 89% | – | O=C(Nc1nccs1)C(OC1CCOCC1)c1ccc(S(=O)(=O)C2CC2)cc1 (centres unmarked) [Example A-1, 2-(4-Cyclopropylsulfonylphenyl)-2-tetrahydropyran-4-yloxy-N-thiazol-2-yl-acetamide]
12 | 950 nM | 85% | – | O=C(Nc1ncc(F)s1)C(OC1CCOCC1)c1ccc(S(=O)(=O)N2CCOCC2)cc1 (centres unmarked) [Example A-11, N-(5-fluorothiazol-2-yl)-2-(4-morpholinosulfonylphenyl)-2-tetrahydropyran-4-yloxy-acetamide]
13 | 660 nM | 88% | – | COc1ccc2nc(NC(=O)C(OC3CCOCC3)c3ccc(S(=O)(=O)N4CCOCC4)cc3)sc2n1 (centres unmarked) [Example A-12, N-(5-methoxythiazolo[5,4-b]pyridin-2-yl)-2-(4-morpholinosulfonylphenyl)-2-tetrahydropyran-4-yloxy-acetamide]
14 | > 10000 nM | – | – | CN1CCC(OC(C(=O)Nc2ncc(F)s2)c2ccc(S(=O)(=O)C3CC3)cc2)CC1 (centres unmarked) [Example A-32, 2-(4-Cyclopropylsulfonylphenyl)-N-(5-fluorothiazol-2-yl)-2-[(1-methyl-4-piperidyl)oxy]acetamide]
15 | > 10000 nM | – | – | CC(C)(C)OC(=O)c1ccc(NC(=O)C(Oc2ccc(F)cc2F)c2ccc(S(=O)(=O)N3CCOCC3)cc2)nc1 (centres unmarked) [Example A-58, tert-Butyl 6-[[2-(2,4-difluorophenoxy)-2-(4-morpholinosulfonylphenyl)acetyl]amino]pyridine-3-carboxylate]
16 | 3700 nM | 83% | – | O=C(O)C1CCc2nc(NC(=O)C(OC3CCOCC3)c3ccc(S(=O)(=O)C4CC4)cc3)sc2C1 (centres unmarked) [Example B-4, 2-[[2-(4-cyclopropylsulfonylphenyl)-2-tetrahydropyran-4-yloxy-acetyl]amino]-4,5,6,7-tetrahydro-1,3-benzothiazole-6-carboxylic acid]
17 | 93 nM | 89% | – | Cc1cc(Oc2cnc(NC(=O)C(Oc3ccc(F)cc3F)c3ccc(S(=O)(=O)C4CC4)cc3)s2)ccc1C(=O)O (centres unmarked) [Example B-9, 4-[2-[[2-(4-cyclopropylsulfonylphenyl)-2-(2,4-difluorophenoxy)acetyl]amino]thiazol-5-yl]oxy-2-methyl-benzoic acid]
18 | 1120 nM | 90% | – | O=C(O)Cc1nc(NC(=O)C(OC2CCOCC2)c2ccc(S(=O)(=O)N3CCCCC3)cc2)sc1Cl (centres unmarked) [Example B-12, 2-[5-chloro-2-[[2-[4-(1-piperidylsulfonyl)phenyl]-2-tetrahydropyran-4-yloxy-acetyl]amino]thiazol-4-yl]acetic acid]
19 | 590 nM | 94% | – | O=C(O)c1ccc(Oc2cnc(NC(=O)C(OC3CCOCC3)c3ccc(S(=O)(=O)C4CC4)cc3)s2)cc1Cl (centres unmarked) [Example B-20, 2-chloro-4-[2-[[2-(4-cyclopropylsulfonylphenyl)-2-tetrahydropyran-4-yloxy-acetyl]amino]thiazol-5-yl]oxy-benzoic acid]
20 | 480 nM | 94% | – | O=C(O)c1cc(Oc2cnc(NC(=O)C(OC3CCOCC3)c3ccc(S(=O)(=O)C4CC4)cc3)s2)ccc1Cl (centres unmarked) [Example B-23, 2-chloro-5-[2-[[2-(4-cyclopropylsulfonylphenyl)-2-tetrahydropyran-4-yloxy-acetyl]amino]thiazol-5-yl]oxy-benzoic acid]
21 | 220 nM | 92% | – | O=C(O)c1cc(-c2ccc(Oc3cnc(NC(=O)C(OC4CCOCC4)c4ccc(S(=O)(=O)C5CC5)cc4)s3)cc2)no1 (centres unmarked) [Example B-26, 3-[4-[2-[[2-(4-cyclopropylsulfonylphenyl)-2-tetrahydropyran-4-yloxy-acetyl]amino]thiazol-5-yl]oxyphenyl]isoxazole-5-carboxylic acid]
22 | 570 nM | 92% | – | O=C(O)c1cc(Oc2cnc(NC(=O)C(OC3CCOCC3)c3ccc(S(=O)(=O)C4CC4)cc3)s2)ccn1 (centres unmarked) [Example B-49, 4-[2-[[2-(4-cyclopropylsulfonylphenyl)-2-tetrahydropyran-4-yloxy-acetyl]amino]thiazol-5-yl]oxypyridine-2-carboxylic acid]
23 | 740 nM | 89% | – | O=C(O)c1ccc(NC(=O)C(Oc2ccc(Cl)cc2)c2ccc(S(=O)(=O)C3CC3)cc2)nc1 (centres unmarked) [Example B-58, 6-[[2-(4-chlorophenoxy)-2-(4-cyclopropylsulfonylphenyl)acetyl]amino]pyridine-3-carboxylic acid]
